Data: the supplement of paper PMC13207355
Where a name gives a salt, the structure may show the parent alone.

Legend:
Conditions in all cases: exposure time: 72 h
[1] = tested on: E13 (patient-derived glioblastoma stem cells of classical subtype); assay: surviving fraction (nuclei count normalised to DMSO); higher = more cells surviving (less toxic)
[2] = tested on: E21 (patient-derived glioblastoma stem cells of mesenchymal subtype); assay: as above
[3] = tested on: E28 (patient-derived glioblastoma stem cells of classical subtype); assay: as above
[4] = tested on: E31 (patient-derived glioblastoma stem cells of proneural subtype); assay: as above
[5] = tested on: E34 (patient-derived glioblastoma stem cells of proneural subtype); assay: as above
[6] = tested on: E57 (patient-derived glioblastoma stem cells of mesenchymal subtype); assay: as above
[7] = tested on: FT3469 (normal neural stem cell line); assay: as above
[8] = tested on: E13; assay: phenotypic distance (Euclidean, principal components) from DMSO controls (arbitrary units); higher = stronger morphological change
[9] = tested on: E21; assay: as above
[10] = tested on: E28; assay: as above
[11] = tested on: E31; assay: as above
[12] = tested on: E34; assay: as above
[13] = tested on: E57; assay: as above
[14] = tested on: FT3469; assay: as above
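For phenotypic distance (Euclidean, principal components) from DMSO controls in this document: cell Painting imaging in 384-well plates, CellProfiler features reduced to at least 20 principal components, Euclidean distance versus same-plate DMSO vehicle wells (0.1% v/v), median over six images per well.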
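For surviving fraction (nuclei count normalised to DMSO) in this document: nuclei counted by high-content imaging of Hoechst-stained cells in laminin-coated 384-well plates, relative to 0.1% DMSO vehicle wells, with staurosporine as cell-death control.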

Oc1c(Cl)cc(Cl)c(Cl)c1Cc1c(O)c(Cl)cc(Cl)c1Cl [Hexachlorophene]
Conditions	phenotypic distance	surviving fraction
[1], 4.1 nM	–	0.829
[1], 12.3 nM	–	0.908
[1], 37 nM	–	0.957
[1], 111.1 nM	–	0.796
[1], 333.3 nM	–	0.826
[1], 1000 nM	–	0.68
[1], 3000 nM	–	0.367
[2], 4.1 nM	–	0.928
[2], 12.3 nM	–	0.925
[2], 37 nM	–	0.965
[2], 111.1 nM	–	0.903
[2], 333.3 nM	–	0.964
[2], 1000 nM	–	0.762
[2], 3000 nM	–	0.552
[3], 4.1 nM	–	0.954
[3], 12.3 nM	–	1.03
[3], 37 nM	–	1.04
[3], 111.1 nM	–	0.884
[3], 333.3 nM	–	1.04
[3], 1000 nM	–	0.839
[3], 3000 nM	–	0.748
[4], 4.1 nM	–	0.956
[4], 12.3 nM	–	0.937
[4], 37 nM	–	1.03
[4], 111.1 nM	–	0.964
[4], 333.3 nM	–	1.03
[4], 1000 nM	–	1.18
[4], 3000 nM	–	0.648
[5], 4.1 nM	–	0.818
[5], 12.3 nM	–	0.897
[5], 37 nM	–	1
[5], 111.1 nM	–	0.845
[5], 333.3 nM	–	0.754
[5], 1000 nM	–	0.721
[5], 3000 nM	–	0.448
[6], 4.1 nM	–	0.988
[6], 12.3 nM	–	1.11
[6], 37 nM	–	0.949
[6], 111.1 nM	–	0.977
[6], 333.3 nM	–	0.908
[6], 1000 nM	–	0.776
[6], 3000 nM	–	0.396
[7], 4.1 nM	–	0.963
[7], 12.3 nM	–	0.887
[7], 37 nM	–	1.07
[7], 111.1 nM	–	0.895
[7], 333.3 nM	–	0.922
[7], 1000 nM	–	0.792
[7], 3000 nM	–	0.648
[8], 4.1 nM	0.81	–
[8], 12.3 nM	0.795	–
[8], 37 nM	3	–
[8], 111.1 nM	0.903	–
[8], 333.3 nM	3.34	–
[8], 1000 nM	1.8	–
[8], 3000 nM	3.77	–
[9], 4.1 nM	1	–
[9], 12.3 nM	0.629	–
[9], 37 nM	1.26	–
[9], 111.1 nM	0.988	–
[9], 333.3 nM	1.51	–
[9], 1000 nM	2.2	–
[9], 3000 nM	4.77	–
[10], 4.1 nM	1.12	–
[10], 12.3 nM	0.421	–
[10], 37 nM	0.961	–
[10], 111.1 nM	0.709	–
[10], 333.3 nM	0.784	–
[10], 1000 nM	1.11	–
[10], 3000 nM	1.45	–
[11], 4.1 nM	0.745	–
[11], 12.3 nM	0.7	–
[11], 37 nM	0.853	–
[11], 111.1 nM	0.867	–
[11], 333.3 nM	1.39	–
[11], 1000 nM	1.83	–
[11], 3000 nM	3.79	–
[12], 4.1 nM	0.861	–
[12], 12.3 nM	0.839	–
[12], 37 nM	0.672	–
[12], 111.1 nM	0.741	–
[12], 333.3 nM	1.14	–
[12], 1000 nM	2.31	–
[12], 3000 nM	3.14	–
[13], 4.1 nM	0.958	–
[13], 12.3 nM	0.865	–
[13], 37 nM	1	–
[13], 111.1 nM	1.03	–
[13], 333.3 nM	2.28	–
[13], 1000 nM	3.09	–
[13], 3000 nM	6.18	–
[14], 4.1 nM	0.687	–
[14], 12.3 nM	1.29	–
[14], 37 nM	0.725	–
[14], 111.1 nM	0.625	–
[14], 333.3 nM	1.47	–
[14], 1000 nM	1.56	–
[14], 3000 nM	2.68	–

COc1cc(OC)c(C(=O)CCCN2CCCC2)c(OC)c1 [Buflomedil hydrochloride]
Conditions	phenotypic distance	surviving fraction
[1], 4.1 nM	–	0.886
[1], 12.3 nM	–	1.12
[1], 37 nM	–	1.19
[1], 111.1 nM	–	1.13
[1], 333.3 nM	–	1.01
[1], 1000 nM	–	1.17
[1], 3000 nM	–	0.944
[2], 4.1 nM	–	1.05
[2], 12.3 nM	–	1.06
[2], 37 nM	–	1.02
[2], 111.1 nM	–	1.12
[2], 333.3 nM	–	1.13
[2], 1000 nM	–	1.12
[2], 3000 nM	–	0.927
[3], 4.1 nM	–	1.16
[3], 12.3 nM	–	1.19
[3], 37 nM	–	0.856
[3], 111.1 nM	–	1.21
[3], 333.3 nM	–	1.1
[3], 1000 nM	–	1.16
[3], 3000 nM	–	0.677
[4], 4.1 nM	–	0.968
[4], 12.3 nM	–	0.998
[4], 37 nM	–	1.23
[4], 111.1 nM	–	1.03
[4], 333.3 nM	–	1.2
[4], 1000 nM	–	1.04
[4], 3000 nM	–	1.02
[5], 4.1 nM	–	0.963
[5], 12.3 nM	–	1.03
[5], 37 nM	–	1.02
[5], 111.1 nM	–	1.11
[5], 333.3 nM	–	1.02
[5], 1000 nM	–	1.22
[5], 3000 nM	–	0.991
[6], 4.1 nM	–	1.06
[6], 12.3 nM	–	1.03
[6], 37 nM	–	0.98
[6], 111.1 nM	–	1.02
[6], 333.3 nM	–	1.04
[6], 1000 nM	–	0.994
[6], 3000 nM	–	0.9
[7], 4.1 nM	–	0.947
[7], 12.3 nM	–	1.27
[7], 37 nM	–	1.15
[7], 111.1 nM	–	1
[7], 333.3 nM	–	1.03
[7], 1000 nM	–	1.1
[7], 3000 nM	–	0.993
[8], 4.1 nM	0.727	–
[8], 12.3 nM	0.83	–
[8], 37 nM	0.928	–
[8], 111.1 nM	0.845	–
[8], 333.3 nM	0.564	–
[8], 1000 nM	0.536	–
[8], 3000 nM	0.71	–
[9], 4.1 nM	0.617	–
[9], 12.3 nM	0.741	–
[9], 37 nM	0.582	–
[9], 111.1 nM	0.712	–
[9], 333.3 nM	0.706	–
[9], 1000 nM	0.913	–
[9], 3000 nM	0.567	–
[10], 4.1 nM	0.701	–
[10], 12.3 nM	0.827	–
[10], 37 nM	0.611	–
[10], 111.1 nM	0.817	–
[10], 333.3 nM	0.347	–
[10], 1000 nM	0.489	–
[10], 3000 nM	0.878	–
[11], 4.1 nM	0.629	–
[11], 12.3 nM	0.47	–
[11], 37 nM	0.918	–
[11], 111.1 nM	0.593	–
[11], 333.3 nM	0.443	–
[11], 1000 nM	0.577	–
[11], 3000 nM	0.55	–
[12], 4.1 nM	0.771	–
[12], 12.3 nM	0.727	–
[12], 37 nM	0.358	–
[12], 111.1 nM	1.11	–
[12], 333.3 nM	0.684	–
[12], 1000 nM	0.961	–
[12], 3000 nM	0.717	–
[13], 4.1 nM	0.802	–
[13], 12.3 nM	1.18	–
[13], 37 nM	4.02	–
[13], 111.1 nM	0.575	–
[13], 333.3 nM	0.903	–
[13], 1000 nM	0.71	–
[13], 3000 nM	0.526	–
[14], 4.1 nM	0.468	–
[14], 12.3 nM	4.94	–
[14], 37 nM	1.05	–
[14], 111.1 nM	0.796	–
[14], 333.3 nM	0.368	–
[14], 1000 nM	0.514	–
[14], 3000 nM	1.05	–
